Experimental data taken from patent publication US4493833A, “Syn-isomer of 3,7-disubstituted-3-cephem-4-carboxylic acid compounds” (Fujisawa Pharmaceutical Co., Ltd., priority 1976, dated 1985).
Converted amounts (≈) assume the structure as drawn. Where two headings read alike, the source gives them in different places.

Key:
[1] = system: Escherichia coli NIHJ JC-2; experiment: In vitro antibacterial activity, two-fold agar-plate dilution method; assay type: cell-based; conditions: NIHJJC2, HI-agar, 37° C., 20 hours
Experimental: (§1) In vitro antibacterial activity was determined by the two-fold agar-plate dilution method as described below.
(§2) One loopful of an overnight culture of each test strain in Trypticase-soy broth (10^8 viable cells per ml.) was streaked on heart infusion agar (HI-agar) containing-graded concentrations of antibiotics, and the minimal inhibitory concentration (MIC) was expressed in terms of μg/ml. after incubation at 37° C. for 20 hours.

[2] = system: Klebsiella pneumoniae 417; experiment: as above; assay type: cell-based
Experimental: as §1, §2

Proteus mirabilis 525 = experiment: as above; assay type: cell-based; conditions: HI-agar, 37° C., 20 hours
Experimental: as §1, §2

[3] = system: Bacillus subtilis ATCC 6633; experiment: as above; assay type: cell-based; conditions: ATCC6633, HI-agar, 37° C., 20 hours
Experimental: as §1, §2
as §2, with “containing graded” for “containing-graded”, “test compounds,” for “antibiotics,”

[4] = system: Pseudomonas aeruginosa NCTC-10490; experiment: as above; assay type: cell-based; conditions: NCTC10490, HI-agar, 37° C., 20 hours
Experimental: as §1
as §2, with “containing graded” for “containing-graded”, “test compounds,” for “antibiotics,”

Escherichia coli 29 [5] = experiment: MIC of strain used in the mouse infection test; assay type: cell-based; conditions: Escherichia coli, 29, 20 h
Experimental: as §1
as §2, with “([…])” for “(10^8 viable cells per ml.)”

Escherichia coli 29 [6] = experiment: Protecting effect against experimental infections in mice; assay type: in vivo, Male ICR strain mice; conditions: s.c. one hour after challenge, one week
Experimental: (§3) Male ICR strain mice aged 4 weeks, each weighing 20-23 g were used in groups of 8 mice. The test bacteria were cultured overnight at 37° C. on HI-agar and then suspended in 2.5-5% mucin solution to obtain the suspension corresponding to each challenge cells. Mice were inoculated intraperitoneally with 0.5 ml of the suspension. A solution containing each test compounds was given subcutaneously to the mice in various dosage one hour after challenge. The ED50 values were calculated from the number of surviving mice for each dosage after one week of observation.

Serratia marcesens 4 [7] = experiment: MIC of strain used in the mouse infection test; assay type: cell-based; conditions: Serratia, 4, 20 h
Experimental: as §1
as §2, with “([…])” for “(10^8 viable cells per ml.)”

Serratia marcesens 4 [8] = experiment: Protecting effect against experimental infections in mice; assay type: in vivo, Male ICR strain mice; conditions: challenge 1.0 × 10^6 cells/mouse i.p.; s.c. one hour after challenge; one week
Experimental: as §3

Proteus vulgaris 1 = experiment: In vitro antibacterial activity, two-fold agar-plate dilution method; assay type: cell-based; conditions: HI-agar, 37° C., 20 hours
Experimental: as §1, §2

[9] = system: Proteus vulgaris IAM-1025; experiment: as above; assay type: cell-based; conditions: IAM1025, HI-agar, 37° C., 20 hours
Experimental: as §1, §2
as §2, with “containing graded concentration” for “containing-graded concentrations”, “test compounds,” for “antibiotics,”, “μg/ml” for “μg/ml.”

Acute toxicity in mice = assay type: in vivo, ICR strain mice; conditions: 2 g intravenously; 10 mice; one week observation
Experimental: The same strain mice as aforesaid protecting test against experimental infections were used in groups of 10 mice. Test compound (8) (2 g) was administered intravenously to said mice.

Escherichia coli 100 [10] = experiment: MIC of strain used in the mouse infection test; assay type: cell-based
Experimental: as §1
as §2, with “([…])” for “(10^8 viable cells per ml.)”

Escherichia coli 100 [11] = experiment: Protecting effect against experimental infections in mice; assay type: in vivo, Male ICR strain mice; conditions: challenge 3.5 × 10^4 cells/mouse i.p.; s.c. one hour after challenge; one week
Experimental: as §3

[12] = Klebsiella pneumoniae 417, HI-agar, 37° C., 20 hours, read-out: MIC
[13] = challenge 6 × 10^6 cells/mouse i.p.

| SMILES | MIC [1] | MIC [2, 12] | MIC (Proteus mirabilis 525) | further results |
| --- | --- | --- | --- | --- |
| CO/N=C(\C(=O)NC1C(=O)N2C(C(=O)O)=C(CSc3nnc(C)s3)CSC12)c1csc(N)n1 (stereo not shown) [(16)] | 0.39 µg/mL (≈ 0.739 µM) | 0.1 µg/mL (≈ 0.19 µM) | 0.39 µg/mL (≈ 0.739 µM) | – |
| C=CCO/N=C(\C(=O)NC1C(=O)N2C(C(=O)O)=C(CSc3nnnn3CC=C)CSC12)c1csc(N)n1 (stereo not shown) [Test Compound (3), 7-[2-Allyloxyimino-2-(2-aminothiazol-4-yl)acetamido]-3-(1-allyl-1H-tetrazol-5-yl)thiomethyl-3-cephem-4-carboxylic acid] | – | – | – | MIC [3]: 0.78 µg/mL (≈ 1.38 µM); MIC [4]: 6.25 µg/mL (≈ 11.1 µM) |
| CO/N=C(\C(=O)NC1C(=O)N2C(C(=O)O)=C(CSc3nc(C)ns3)CSC12)c1csc(N)n1 (stereo not shown) [Test Compound (3), 7-[2-Methoxyimino-2-(2-aminothiazol-4-yl)acetamido]-3-(3-methyl-1,2,4-thiadiazol-5-yl)thiomethyl-3-cephem-4-carboxylic acid] | – | – | – | MIC [3]: 1.56 µg/mL (≈ 2.96 µM) |
| CO/N=C(\C(=O)NC1C(=O)N2C(C(=O)O)=C(CSc3nncs3)CSC12)c1csc(NC=O)n1 (stereo not shown) [(10)] | 0.78 µg/mL (≈ 1.44 µM) | 1.56 µg/mL (≈ 2.88 µM) | 0.39 µg/mL (≈ 0.72 µM) | – |
| CC(=O)OCC1=C(C(=O)O)N2C(=O)C(NC(=O)Cc3cccs3)C2SC1 (stereo not shown) [CET, 7(2-Thienyl)acetamidocephalosporanic acid, reference compound] | – | – | – | MIC (Escherichia coli 29 [5]; 10^6 viable cells/ml): 3.13 µg/mL; MIC (Escherichia coli 29 [5]; 10^8 viable cells/ml): 12.5 µg/mL; ED50 (S.C.) (Escherichia coli 29 [6]; [13]): 1.402 mg/mouse |
| C=CCn1nnnc1SCC1=C(C(=O)O)N2C(=O)C(NC(=O)/C(=N\OC(C)C)c3csc(N)n3)C2SC1 (stereo not shown) [(21)] | – | – | – | MIC [3]: 0.78 µg/mL (≈ 1.38 µM); MIC (Proteus vulgaris 1): 0.78 µg/mL (≈ 1.38 µM); MIC [9]: 0.78 µg/mL (≈ 1.38 µM) |
| CO/N=C(\C(=O)NC1C(=O)N2C(C(=O)O)=C(COC(N)=O)CSC12)c1csc(NC(=O)C(F)(F)F)n1 (stereo not shown) [(18)] | 3.13 µg/mL (≈ 5.67 µM) | 0.05 µg/mL (≈ 0.0905 µM) | 0.025 µg/mL (≈ 0.0453 µM) | – |
| CO/N=C(\C(=O)NC1C(=O)N2C(C(=O)O)=C(COC(C)=O)CSC12)c1csc(N)n1 (stereo not shown) [(8)] | 0.1 µg/mL (≈ 0.22 µM) | 0.1 µg/mL (≈ 0.22 µM) | 0.05 µg/mL (≈ 0.11 µM) | Acute toxicity (survival, disorder) (Acute toxicity in mice): All mice survived without showing any disorder; MIC (Escherichia coli 29 [5]; 10^6 viable cells/ml): ≤ 0.03 µg/mL; MIC (Escherichia coli 29 [5]; 10^8 viable cells/ml): 0.2 µg/mL; ED50 (S.C.) (Escherichia coli 29 [6]; [13]): < 0.005 mg/mouse |
| CO/N=C(\C(=O)NC1C(=O)N2C(C(=O)O)=C(CSc3nncn3C)CSC12)c1csc(N)n1 (stereo not shown) [(17)] | 0.2 µg/mL (≈ 0.392 µM) | 0.2 µg/mL (≈ 0.392 µM) | 0.39 µg/mL (≈ 0.764 µM) | – |
| Cc1nnc(SCC2=C(C(=O)O)N3C(=O)C(NC(=O)Cn4cnnn4)C3SC2)s1 (stereo not shown) [CEZ Na, reference compound] | – | – | – | MIC (Escherichia coli 29 [5]; 10^6 viable cells/ml): 0.78 µg/mL; MIC (Escherichia coli 29 [5]; 10^8 viable cells/ml): 3.13 µg/mL; ED50 (S.C.) (Escherichia coli 29 [6]; challenge 5.5 × 10^5 cells/mouse i.p.): 0.182 mg/mouse |
| CO/N=C(/C(=O)NC1C(=O)N2C(C(=O)O)=C(COC(C)=O)CSC12)c1csc(N)n1 (stereo not shown) [(9)] | 3.13 µg/mL (≈ 6.87 µM) | – | 0.78 µg/mL (≈ 1.71 µM) | MIC ([2]; Klebsiella pneumoniae, 417, 20 h): 1.56 µg/mL (≈ 3.43 µM) |
| CC(C)O/N=C(\C(=O)NC1C(=O)N2C(C(=O)O)=C(COC(N)=O)CSC12)c1csc(N)n1 (stereo not shown) [(20)] | – | – | – | MIC [3]: 1.56 µg/mL (≈ 3.22 µM); MIC (Proteus vulgaris 1): 0.2 µg/mL (≈ 0.413 µM); MIC [9]: 0.2 µg/mL (≈ 0.413 µM) |
| CO/N=C(\C(=O)N[C@@H]1C(=O)N2C(C(=O)O)=C(COC(N)=O)CS[C@H]12)c1ccco1 [Cefuroxime, reference compound] | – | – | – | MIC of used strain (Escherichia coli 100 [10]; 10^6 viable cells/ml): 12.5 µg/mL; MIC (Escherichia coli 100 [10]; 20 h, 10^8 viable cells/ml): 12.5 µg/mL; MIC (Serratia marcesens 4 [7]; 10^6 viable cells/ml): 50 µg/mL; MIC (Serratia marcesens 4 [7]; 10^8 viable cells/ml): 400 µg/mL; ED50 (S.C.) (Escherichia coli 100 [11]): 1.158 mg/mouse; ED50 (S.C.) (Serratia marcesens 4 [8]): 4.329 mg/mouse |
| C#CCO/N=C(\C(=O)NC1C(=O)N2C(C(=O)O)=C(COC(C)=O)CSC12)c1csc(N)n1 (stereo not shown) [(19)] | – | – | – | MIC [3]: 3.13 µg/mL (≈ 6.53 µM); MIC (Proteus vulgaris 1): 0.78 µg/mL (≈ 1.63 µM); MIC [9]: 0.78 µg/mL (≈ 1.63 µM) |

The next lines start with results.

| MIC [1] | MIC [2, 12] | MIC (Proteus mirabilis 525) | SMILES | further results |
| --- | --- | --- | --- | --- |
| 0.1 µg/mL (≈ 0.195 µM) | 0.2 µg/mL (≈ 0.389 µM) | 0.1 µg/mL (≈ 0.195 µM) | CO/N=C(\C(=O)NC1C(=O)N2C(C(=O)O)=C(CSc3nncs3)CSC12)c1csc(N)n1 (stereo not shown) [(14)] | MIC (Escherichia coli 29 [5]; 10^6 viable cells/ml): ≤ 0.03 µg/mL; MIC (Escherichia coli 29 [5]; 10^8 viable cells/ml): ≤ 0.03 µg/mL; ED50 (S.C.) (Escherichia coli 29 [6]; [13]): < 0.005 mg/mouse |
| 1.56 µg/mL (≈ 3.42 µM) | 0.5 µg/mL (≈ 1.1 µM) | 0.025 µg/mL (≈ 0.0548 µM) | CO/N=C(\C(=O)NC1C(=O)N2C(C(=O)O)=C(COC(N)=O)CSC12)c1csc(N)n1 (stereo not shown) [(13)] | MIC (Serratia marcesens 4 [7]; 10^6 viable cells/ml): ≤ 0.025 µg/mL; MIC (Serratia marcesens 4 [7]; 10^8 viable cells/ml): 25 µg/mL; ED50 (S.C.) (Serratia marcesens 4 [8]): < 0.156 mg/mouse |
| 12.5 µg/mL (≈ 23.1 µM) | 3.13 µg/mL (≈ 5.78 µM) | 3.13 µg/mL (≈ 5.78 µM) | CO/N=C(/C(=O)NC1C(=O)N2C(C(=O)O)=C(CSc3nncs3)CSC12)c1csc(NC=O)n1 (stereo not shown) [(11)] | – |
| 1.56 µg/mL (≈ 3.23 µM) | 1.56 µg/mL (≈ 3.23 µM) | 0.78 µg/mL (≈ 1.61 µM) | CO/N=C(\C(=O)NC1C(=O)N2C(C(=O)O)=C(COC(C)=O)CSC12)c1csc(NC=O)n1 (stereo not shown) [(12)] | MIC (Serratia marcesens 4 [7]; 10^6 viable cells/ml): 6.25 µg/mL; MIC (Serratia marcesens 4 [7]; 10^8 viable cells/ml): 200 µg/mL; ED50 (S.C.) (Serratia marcesens 4 [8]): 0.018 mg/mouse |
| 50 µg/mL (≈ 98.9 µM) | 6.25 µg/mL (≈ 12.4 µM) | 25 µg/mL (≈ 49.5 µM) | CO/N=C(/C(=O)NC1C(=O)N2C(C(=O)O)=C(CSc3nnnn3C)CSC12)c1cccc(O)c1 (stereo not shown) [(3)] | – |
| 12.5 µg/mL (≈ 24.4 µM) | 6.25 µg/mL (≈ 12.2 µM) | 3.13 µg/mL (≈ 6.12 µM) | CO/N=C(/C(=O)NC1C(=O)N2C(C(=O)O)=C(CSc3nnnn3C)CSC12)c1csc(N)n1 (stereo not shown) [(7)] | – |
| 0.78 µg/mL (≈ 1.89 µM) | 0.05 µg/mL (≈ 0.121 µM) | 0.1 µg/mL (≈ 0.242 µM) | CO/N=C(\C(=O)NC1C(=O)N2C(C(=O)O)=C(CO)CSC12)c1csc(N)n1 (stereo not shown) [(15)] | – |
